The compounds below were run against human chemokine receptor CXCR7 (Homo sapiens (Human), UniProt P25106) (assay: Tango CXCR7-bla U2OS beta-arrestin recruitment assay (beta-lactamase reporter, FRET), antagonism of CXCL12/SDF1-α). Details: antagonistic effect on CXCR7; Tango CXCR7-bla U2OS cells, CXCL12/SDF1-α at its EC80.
Sequence of human chemokine receptor CXCR7 (P25106 whole entry): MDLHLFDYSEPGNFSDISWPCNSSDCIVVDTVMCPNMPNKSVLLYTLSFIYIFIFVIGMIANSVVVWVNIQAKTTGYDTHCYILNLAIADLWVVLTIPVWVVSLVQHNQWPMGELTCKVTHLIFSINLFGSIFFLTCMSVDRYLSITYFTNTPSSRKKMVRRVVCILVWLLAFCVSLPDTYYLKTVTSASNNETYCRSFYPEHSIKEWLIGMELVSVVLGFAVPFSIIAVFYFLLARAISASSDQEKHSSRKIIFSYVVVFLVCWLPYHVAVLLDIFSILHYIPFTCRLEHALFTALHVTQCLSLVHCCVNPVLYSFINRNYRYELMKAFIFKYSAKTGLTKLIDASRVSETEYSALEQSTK
Format: cell-based
`O=C(N[C@@H]1CCN(CC2CC2)C[C@H]1C(=O)NC1(c2ncccn2)CC1)c1cc(-c2cccc(F)c2F)on1` (racemic) [Example 1.199, rac-(3R*,4R*)-1-Cyclopropylmethyl-4-{[5-(2,3-difluoro-phenyl)-isoxazole-3-carbonyl]-amino}-piperidine-3-carboxylic acid (1-pyrimidin-2-yl-cyclopropyl)-amide] showed an IC50 of 273 nM.
For `CC(C)N1CC[C@@H](NC(=O)c2cc(-c3ccc(F)cc3F)on2)[C@H](C(=O)N(C)C)C1` (racemic) [Example 2.001, rac-(3R*,4R*)-4-{[5-(2,4-Difluoro-phenyl)-isoxazole-3-carbonyl]-amino}-1-isopropyl-piperidine-3-carboxylic Acid Dimethylamide], the IC50 was 209 nM.
For `CN(C)C(=O)[C@@H]1CN(C2CCCCC2)CC[C@H]1NC(=O)c1cc(-c2c(F)cccc2F)on1` (racemic) [Example 3.001, rac-(3R*,4R*)-1-Cyclohexyl-4-{[5-(2,6-difluoro-phenyl)-isoxazole-3-carbonyl]-amino}-piperidine-3-carboxylic acid dimethylamide], the IC50 was 965 nM.
Compound `CN(C)C(=O)[C@@H]1CN(C2CCCCC2)CC[C@H]1NC(=O)c1cc(-c2ccc(F)cc2)on1` (racemic) [Example 3.002, rac-(3R*,4R*)-1-Cyclohexyl-4-{[5-(4-fluoro-phenyl)-isoxazole-3-carbonyl]-amino}-piperidine-3-carboxylic acid dimethylamide] has an IC50 of 435 nM.
Compound `CN(C)C(=O)[C@@H]1CN(C2CCCCC2)CC[C@H]1NC(=O)c1nnc(-c2ccc(F)cc2F)o1` (racemic) [Example 3.003, rac-(3R*,4R*)-1-Cyclohexyl-4-{[5-(2,4-difluoro-phenyl)-[1,3,4]oxadiazole-2-carbonyl]-amino}-piperidine-3-carboxylic acid dimethylamide] has an IC50 of 105 nM.
Compound `CN(C)C(=O)[C@@H]1CN(C2CCCCC2)CC[C@H]1NC(=O)c1cc(-c2ccc(F)cc2Cl)on1` (racemic) [Example 3.004, rac-(3R*,4R*)-4-{[5-(2-Chloro-4-fluoro-phenyl)-isoxazole-3-carbonyl]-amino}-1-cyclohexyl-piperidine-3-carboxylic acid dimethylamide] has an IC50 of 338 nM.
With `CN(C)C(=O)[C@@H]1CN(C2CCCCC2)CC[C@H]1NC(=O)c1cc(-c2c(F)cc(F)cc2F)on1` (racemic) [Example 3.005, rac-(3R*,4R*)-1-Cyclohexyl-4-{[5-(2,4,6-trifluoro-phenyl)-isoxazole-3-carbonyl]-amino}-piperidine-3-carboxylic acid dimethylamide] the IC50 was 38 nM.
`CN(C)C(=O)[C@@H]1CN(C2CCCCC2)CC[C@H]1NC(=O)c1cc(-c2ccc(Cl)cc2F)on1` (racemic) [Example 3.006, rac-(3R*,4R*)-4-{[5-(4-Chloro-2-fluoro-phenyl)-isoxazole-3-carbonyl]-amino}-1-cyclohexyl-piperidine-3-carboxylic acid dimethylamide] gave an IC50 of 108 nM.
Compound `CN(C)C(=O)[C@@H]1CN(C2CCCCC2)CC[C@H]1NC(=O)c1noc(-c2ccc(F)cc2F)n1` (racemic) [Example 3.007, rac-(3R*,4R*)-1-Cyclohexyl-4-{[5-(2-difluoro-phenyl)-[1,2,4]oxadiazole-3-carbonyl]-amino}-piperidine-3-carboxylic acid dimethylamide] has an IC50 of 162 nM.
`O=C(N[C@@H]1CCN(C2CCCCC2)C[C@H]1C(=O)NC1(c2ccccn2)CC1)c1cc(-c2ccccc2F)on1` (racemic) [Example 3.009, rac-(3R*,4R*)-1-Cyclohexyl-4-{[5-(2-fluoro-phenyl)-isoxazole-3-carbonyl]amino}-piperidine-3-carboxylic acid (1-pyridin-2-yl-cyclopropyl)-amide] showed an IC50 of 286 nM.
`O=C(N[C@@H]1CCN(C2CCCCC2)C[C@H]1C(=O)NC1(c2ccccn2)CC1)c1nnc(-c2ccc(F)cc2F)o1` (racemic) [Example 3.012, rac-(3R*,4R*)-1-Cyclohexyl-4-{[5-(2,4-difluoro-phenyl)-[1,3,4]oxadiazole-2-carbonyl]-amino}-piperidine-3-carboxylic acid (1-pyridin-2-yl-cyclopropyl)-amide] showed an IC50 of 26 nM.
Work on `O=C(N[C@@H]1CCN(CC2CC2)C[C@H]1C(=O)NC1(c2ccccn2)CC1)c1cc(-c2ccccc2F)on1` (racemic) [Example 3.013, rac-(3R*,4R*)-1-Cyclopropylmethyl-4-{[5-(2-fluoro-phenyl)-isoxazole-3-carbonyl]-amino}-piperidine-3-carboxylic acid (1-pyridin-2-yl-cyclopropyl)-amide] yielded an IC50 of 153 nM.
Compound `O=C(N[C@@H]1CCN(CC2CC2)C[C@H]1C(=O)NC1(c2ccccn2)CC1)c1cc(-c2ccc(F)cc2)on1` (racemic) [Example 3.014, rac-(3R*,4R*)-1-Cyclopropylmethyl-4-{[5-(4-fluoro-phenyl)-isoxazole-3-carbonyl]-amino}-piperidine-3-carboxylic acid (1-pyridin-2-yl-cyclopropyl)-amide] has an IC50 of 158 nM.
With `O=C(N[C@@H]1CCN(CC2CC2)C[C@H]1C(=O)NC1(c2ccccn2)CC1)c1ncc(-c2ccc(F)cc2F)o1` (racemic) [Example 3.015, rac-(3R*,4R*)-1-Cyclopropylmethyl-4-{[5-(2,4-difluoro-phenyl)-oxazole-2-carbonyl]-amino}-piperidine-3-carboxylic acid (1-pyridin-2-yl-cyclopropyl)-amide] the IC50 was 170 nM.
`O=C(N[C@@H]1CCN(CC2CC2)C[C@H]1C(=O)NC1(c2ccccn2)CC1)c1nnc(-c2ccc(F)cc2F)o1` (racemic) [Example 3.016, rac-(3R*,4R*)-1-Cyclopropylmethyl-4-{[5-(2,4-difluoro-phenyl)-[1,3,4]oxadiazole-2-carbonyl]-amino}-piperidine-3-carboxylic acid (1-pyridin-2-yl-cyclopropyl)-amide] was tested, and the IC50 was 105 nM.
With `CN(C)C(=O)[C@@H]1CN(C2CCCC2)CC[C@H]1NC(=O)c1ncc(-c2ccc(F)cc2F)o1` (racemic) [Example 3.017, rac-(3R*,4R*)-1-Cyclopentyl-4-{[5-(2,4-difluoro-phenyl)-oxazole-2-carbonyl]-amino}-piperidine-3-carboxylic acid dimethylamide] the IC50 was 661 nM.
Work on `CN(C)C(=O)[C@@H]1CN(C2CCCCC2)CC[C@H]1NC(=O)c1ncc(-c2ccc(F)cc2F)o1` (racemic) [Example 3.018, rac-(3R*,4R*)-1-Cyclohexyl-4-{[5-(2,4-difluoro-phenyl)-oxazole-2-carbonyl]-amino}-piperidine-3-carboxylic acid dimethylamide] yielded an IC50 of 198 nM.
`CN(C)C(=O)[C@@H]1CN(C2CCCCC2)CC[C@H]1NC(=O)c1nc(-c2ccc(F)cc2F)no1` (racemic) [Example 3.019, rac-(3R*,4R*)-1-Cyclohexyl-4-{[3-(2,4-difluoro-phenyl)-[1,2,4]oxadiazole-5-carbonyl]-amino}-piperidine-3-carboxylic acid dimethylamide] gave an IC50 of 778 nM.
Work on `O=C(N[C@@H]1CCN(CC2CC2)C[C@H]1C(=O)NC1(c2ncccn2)CC1)c1noc(-c2ccc(F)cc2)c1F` (racemic) [Example 3.021, rac-(3R*,4R*)-1-Cyclopropylmethyl-4-{[4-fluoro-5-(4-fluoro-phenyl)-isoxazole-3-carbonyl]-amino}-piperidine-3-carboxylic acid (1-pyrimidin-2-yl-cyclopropyl)-amide] yielded an IC50 of 40 nM.
In the case of `O=C(N[C@@H]1CCN(CC2CC2)C[C@H]1C(=O)NC1(c2ncccn2)CC1)c1noc(-c2ccc(F)cc2F)c1F` (racemic) [Example 3.022, rac-(3R*,4R*)-1-Cyclopropylmethyl-4-{[5-(2,4-difluoro-phenyl)-4-fluoro-isoxazole-3-carbonyl]-amino}-piperidine-3-carboxylic acid (1-pyrimidin-2-yl-cyclopropyl)-amide], the IC50 is reported as 28 nM.
For `CN(C)C(=O)[C@]1(C)CN(C2CCCCC2)CC[C@H]1NC(=O)c1cc(-c2ccc(F)cc2F)on1` (racemic) [Example 5.002, rac-(3R*,4R*)-1-Cyclohexyl-4-{[5-(2,4-difluoro-phenyl)-isoxazole-3-carbonyl]-amino}-3-methyl-piperidine-3-carboxylic Acid Dimethylamide], the IC50 was 857 nM.
`O=C(N[C@@H]1CCN(C2CCCCC2)C[C@H]1C(=O)N1CCC(O)C1)c1cc(-c2ccc(F)cc2F)on1` (relative stereo) [Example 1.028, 5-(2,4-Difluoro-phenyl)-isoxazole-3-carboxylic acid [(3R*,4R*)-1-cyclohexyl-3-((3RS)-3-hydroxy-pyrrolidine-1-carbonyl)-piperidin-4-yl]-amide] showed an IC50 of 916 nM.
`O=C(N[C@@H]1CCN(C2CCCCC2)C[C@H]1C(=O)NCC1CCCO1)c1cc(-c2ccc(F)cc2F)on1` (relative stereo) [Example 1.044, (3R*,4R*)-1-Cyclohexyl-4-{[5-(2,4-difluoro-phenyl)-isoxazole-3-carbonyl]-amino}-piperidine-3-carboxylic acid ((2RS)-tetrahydro-furan-2-ylmethyl)-amide] showed an IC50 of 556 nM.
For `CC(NC(=O)[C@@H]1CN(C2CCCCC2)CC[C@H]1NC(=O)c1cc(-c2ccc(F)cc2F)on1)c1ccncn1` (relative stereo) [Example 1.063, (3R*,4R*)-1-Cyclohexyl-4-{[5-(2,4-difluoro-phenyl)-isoxazole-3-carbonyl]-amino}-piperidine-3-carboxylic acid ((1RS)-1-(pyrimidin-4-yl)-ethyl)-amide], the IC50 was 107 nM.
For `O=C(N[C@@H]1CCN(C2CCCCC2)C[C@H]1C(=O)NC(c1ccccn1)C(F)(F)F)c1cc(-c2ccc(F)cc2F)on1` (relative stereo) [Example 1.069, (3R*,4R*)-1-Cyclohexyl-4-{[5-(2,4-difluoro-phenyl)-isoxazole-3-carbonyl]-amino}-piperidine-3-carboxylic acid ((1RS)-2,2,2-trifluoro-1-pyridin-2-yl-ethyl)-amide], the IC50 was 556 nM.
Work on `O=C(N[C@@H]1CCN(C2CCCCC2)C[C@H]1C(=O)NC[C@H](O)c1ccccc1)c1cc(-c2ccc(F)cc2F)on1` (relative stereo) [Example 1.072, (3R*,4R*)-1-Cyclohexyl-4-{[5-(2,4-difluoro-phenyl)-isoxazole-3-carbonyl]-amino}-piperidine-3-carboxylic acid ((R)-2-hydroxy-2-phenyl-ethyl)-amide] yielded an IC50 of 32 nM.

Source: patent US11306078B2, “Piperidine CXCR7 receptor modulators” (IDORSIA PHARMACEUTICALS LTD., priority 2016, dated 2022)
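Note: compounds preincubated 15 min before CXCL12 addition, then 22 h at 37 °C, FRET emission ratio read with CCF4-AM substrate after 2 h.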
